From US8278295B2, “Amino-heterocyclic compounds” (Pfizer Inc., priority 2009, dated 2012)

Molecular target: human recombinant PDE9 enzyme (Homo sapiens, UniProt O76083)
Experiment: PDE9 IC50, 96-well assay (Phosphodiesterase SPA)
Format: biochemical
Experimental: PDE9 IC50, 96-well assay: The assay was performed using the Phosphodiesterase Scintillation Proximity (SPA) assay (GE Healthcare Life Sciences). […] The human recombinant PDE9 enzyme was generated in SF-9 cells, the cell pellets were sonicated in buffer (20 mM Tris, 2 mM benzamidine, 1 mM EDTA, 250 mM sucrose, 100 μM PMSF, pH 7.5 with HCl), centrifuged at 40,000×g for 20 min at 4° C. The supernatants were stored at −80° C. […] Test compounds were dissolved in DMSO, diluted in DI H2O and serially diluted in 20% DMSO/80% H2O, for a final concentration of 2% DMSO. For the assay the PDE9 was diluted with assay buffer such that 20% or less of the substrate was hydrolyzed to 5′GMP. Each assay well contained 10 μL of test compound or solvent, 40 μl of [^3H]cGMP and 50 μl of enzyme, background was determined by a high concentration of a PDE inhibitor. The assay was initiated with the addition of the enzyme and carried out at room temperature for 30 min. […] The plates were sealed, vortexed, allowed to set for >300 min, then counted in a Wallac TriLux MicroBeta LSC.

Sequence of human recombinant PDE9 enzyme (O76083 whole entry): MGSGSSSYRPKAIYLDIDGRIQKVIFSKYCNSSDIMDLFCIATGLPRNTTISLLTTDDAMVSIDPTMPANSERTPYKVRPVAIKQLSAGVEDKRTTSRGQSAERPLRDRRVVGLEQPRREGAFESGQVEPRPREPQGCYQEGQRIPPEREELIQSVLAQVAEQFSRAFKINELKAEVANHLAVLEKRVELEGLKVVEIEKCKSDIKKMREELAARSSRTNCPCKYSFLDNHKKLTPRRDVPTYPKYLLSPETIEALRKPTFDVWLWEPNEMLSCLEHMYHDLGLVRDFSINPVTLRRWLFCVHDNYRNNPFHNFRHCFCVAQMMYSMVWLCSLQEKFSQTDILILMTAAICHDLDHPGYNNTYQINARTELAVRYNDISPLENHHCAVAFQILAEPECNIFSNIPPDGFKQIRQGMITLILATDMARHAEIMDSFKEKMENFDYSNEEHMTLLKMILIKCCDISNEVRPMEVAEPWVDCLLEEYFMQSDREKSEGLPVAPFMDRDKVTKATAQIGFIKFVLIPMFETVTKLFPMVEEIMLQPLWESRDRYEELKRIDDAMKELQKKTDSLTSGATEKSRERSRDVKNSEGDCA

C[C@H](c1nc2c(cnn2C2CCCC2)c(=O)[nH]1)N1CC(Oc2ncccn2)C1 [Example 13, 1-Cyclopentyl-6-{(1R)-1-[3-(pyrimidin-2-yloxy)azetidin-1-yl]ethyl}-1,5-dihydro-4H-pyrazolo[3,4-d]pyrimidin-4-one]
IC50: 9.49 nM
